Test results: patent US8614201B2 (Janssen Pharmaceutica NV, priority 2009, dated 2013)

Molecular target: Human TRPA1 (Homo sapiens, UniProt O75762)
Assay: Alternative TRPA1 Ca2+ fluorometry assay (hTRPA1/TREx-HEK293 cells, Fluo-4, FDSS 6000)
Assay type: cell-based
Set-up: expressed in transfected cells
Conditions: Fluo-4-AM, agonist 6,11-dihydro-5H-dibenzo[b,e]azepine-10-carboxylic acid methyl ester 25 nM, procedure used for Examples 184, 190 to 192, 194 to 316
In short: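 Tetracycline-induced (50 ng/ml, 24 h) hTRPA1/TREx-HEK293 cells were loaded with Fluo-4-AM and probenecid. Compound (1% DMSO final) was added after a 12 s baseline and the Ca2+ signal followed for 14 min, then 25 nM TRPA1 agonist dibenzazepine carboxylic acid methyl ester was applied. Signal is Em540 (ex 488 nm) relative to the first baseline reading.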

Chain of Human TRPA1 (O75762 whole entry): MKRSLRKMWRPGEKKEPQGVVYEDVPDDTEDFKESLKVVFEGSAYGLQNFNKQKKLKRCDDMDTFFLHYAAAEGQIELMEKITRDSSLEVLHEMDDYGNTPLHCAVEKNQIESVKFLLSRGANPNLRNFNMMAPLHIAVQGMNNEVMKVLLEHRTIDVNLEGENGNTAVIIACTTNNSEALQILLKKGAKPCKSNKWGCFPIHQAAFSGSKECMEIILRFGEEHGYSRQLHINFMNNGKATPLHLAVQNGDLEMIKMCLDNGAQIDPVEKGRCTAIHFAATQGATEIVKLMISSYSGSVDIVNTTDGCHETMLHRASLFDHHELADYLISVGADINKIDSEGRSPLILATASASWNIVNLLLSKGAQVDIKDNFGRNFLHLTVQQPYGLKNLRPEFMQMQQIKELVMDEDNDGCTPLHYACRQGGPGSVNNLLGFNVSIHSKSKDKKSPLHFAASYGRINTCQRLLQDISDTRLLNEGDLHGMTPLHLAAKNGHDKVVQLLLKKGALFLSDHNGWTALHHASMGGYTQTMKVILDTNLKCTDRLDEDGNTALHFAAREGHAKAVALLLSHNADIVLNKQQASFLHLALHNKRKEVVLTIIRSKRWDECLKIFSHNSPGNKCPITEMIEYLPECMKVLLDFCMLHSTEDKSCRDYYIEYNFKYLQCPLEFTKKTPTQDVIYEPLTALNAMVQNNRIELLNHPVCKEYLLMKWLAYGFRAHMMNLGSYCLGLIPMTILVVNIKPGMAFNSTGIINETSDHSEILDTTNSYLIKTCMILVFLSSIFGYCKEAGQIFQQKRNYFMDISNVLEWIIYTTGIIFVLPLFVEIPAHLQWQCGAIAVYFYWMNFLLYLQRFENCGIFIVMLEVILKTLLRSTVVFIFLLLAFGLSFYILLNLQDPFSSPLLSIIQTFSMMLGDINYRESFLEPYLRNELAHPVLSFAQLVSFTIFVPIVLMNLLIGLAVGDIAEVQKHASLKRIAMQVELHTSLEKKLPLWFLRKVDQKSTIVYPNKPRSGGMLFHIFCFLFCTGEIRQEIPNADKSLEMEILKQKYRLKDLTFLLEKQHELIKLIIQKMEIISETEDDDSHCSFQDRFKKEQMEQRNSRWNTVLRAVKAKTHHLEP

Compound | IC50 [nM]
O=C(NCc1cc(-c2ccc(C(F)(F)F)cc2)nc(NCCC2C=Nc3ccccc32)n1)[C@@H]1CCCN1S(=O)(=O)c1ccc(F)cc1 (stereo partly drawn) [Example 299, 1-(4-Fluoro-benzenesulfonyl)-pyrrolidine-2S-carboxylic acid [2-[2-(3H-indol-3-yl)-ethylamino]-6-(4-trifluoromethyl-phenyl)-pyrimidin-4-ylmethyl]-amide] | ~1590
O=C(NCc1cc(-c2ccc(Br)cc2)nc(N2CCN(c3ccc(F)cc3)CC2)n1)[C@@H]1CCCN1S(=O)(=O)c1ccc(F)cc1 [Example 300, 1-(4-Fluoro-benzenesulfonyl)-pyrrolidine-2S-carboxylic acid {6-(4-bromo-phenyl)-2-[4-(4-fluoro-phenyl)-piperazin-1-yl]-pyrimidin-4-ylmethyl}-amide] | 2510
NS(=O)(=O)c1ccc(CCNc2nc(CNC(=O)[C@@H]3CCCN3S(=O)(=O)c3ccc(F)cc3)cc(-c3ccc(Br)cc3)n2)cc1 [Example 301, 1-(4-Fluoro-benzenesulfonyl)-pyrrolidine-2S-carboxylic acid {6-(4-bromo-phenyl)-2-[2-(4-sulfamoyl-phenyl)-ethylamino]-pyrimidin-4-ylmethyl}-amide] | 5620
O=C(NCc1cc(-c2ccc(Br)cc2)nc(N2CCC[C@H]2CO)n1)[C@@H]1CCCN1S(=O)(=O)c1ccc(F)cc1 [Example 302, 1-(4-Fluoro-benzenesulfonyl)-pyrrolidine-2S-carboxylic acid [6-(4-bromo-phenyl)-2-(2S-hydroxymethyl-pyrrolidin-1-yl)-pyrimidin-4-ylmethyl]-amide] | 8710
O=C(NCc1cc(-c2ccc(C(F)(F)F)cc2)nc(N2CCc3ccccc3C2)n1)[C@@H]1CCCN1S(=O)(=O)c1ccc(F)cc1 [Example 303, 1-(4-Fluoro-benzenesulfonyl)-pyrrolidine-2S-carboxylic acid [2-(3,4-dihydro-1H-isoquinolin-2-yl)-6-(4-trifluoromethyl-phenyl)-pyrimidin-4-ylmethyl]-amide] | ~2820
O=C(NCc1cc(-c2ccc(C(F)(F)F)cc2)nc(N2CCN(c3ccc(F)cc3)CC2)n1)[C@@H]1CCCN1S(=O)(=O)c1ccc(F)cc1 [Example 304, 1-(4-Fluoro-benzenesulfonyl)-pyrrolidine-2S-carboxylic acid [2-[4-(4-fluoro-phenyl)-piperazin-1-yl]-6-(4-trifluoromethyl-phenyl)-pyrimidin-4-ylmethyl]-amide] | 331
O=C(NCc1cc(-c2ccc3c(c2)OCO3)nc(N2CCN(Cc3ccc4c(c3)OCO4)CC2)n1)[C@@H]1CCCN1S(=O)(=O)c1ccc(F)cc1 [Example 305, 1-(4-Fluoro-benzenesulfonyl)-pyrrolidine-2S-carboxylic acid [6-benzo[1,3]dioxol-5-yl-2-(4-benzo[1,3]dioxol-5-ylmethyl-piperazin-1-yl)-pyrimidin-4-ylmethyl]-amide] | ~5890
CC1CCN(c2nc(CNC(=O)[C@@H]3CCCN3S(=O)(=O)c3ccc(F)cc3)cc(-c3ccc4c(c3)OCO4)n2)CC1 [Example 306, 1-(4-Fluoro-benzenesulfonyl)-pyrrolidine-2S-carboxylic acid [6-benzo[1,3]dioxol-5-yl-2-(4-methyl-piperidin-1-yl)-pyrimidin-4-ylmethyl]-amide] | ~2090
O=C(NCc1cc(-c2ccc(C(F)(F)F)cc2)nc(NC2CCc3ccccc32)n1)[C@@H]1CCCN1S(=O)(=O)c1ccc(F)cc1 (stereo partly drawn) [Example 307, 1-(4-Fluoro-benzenesulfonyl)-pyrrolidine-2S-carboxylic acid [2-(indan-1-ylamino)-6-(4-trifluoromethyl-phenyl)-pyrimidin-4-ylmethyl]-amide] | ~354
CC(C)[C@@H](CO)Nc1nc(CNC(=O)[C@@H]2CCCN2S(=O)(=O)c2ccc(F)cc2)cc(-c2ccc(C(F)(F)F)cc2)n1 [Example 308, 1-(4-Fluoro-benzenesulfonyl)-pyrrolidine-2S-carboxylic acid [2-(1-hydroxymethyl-2-methyl-propylamino)-6-(4-trifluoromethyl-phenyl)-pyrimidin-4-ylmethyl]-amide] | 1780
